Assays:
[1] = test system: IP L1210/Cisplatin; assay: Activity against IP-implanted L1210/Cisplatin leukemia resistant to cisplatin, 60 day test (Table 4); type: in vivo, Female CD2Fl mice
Method: (§1) Biological properties of the compounds of the present invention were determined following the protocol described in Cancer Chemotherapy Reports, Vol. 3, No. 3, 1972 which report is incorporated herein by reference.
Other known mechanisms of resistance for other classes of agents, such as gene amplification or target enzyme change or amplication, also need to be explored. The experiments summarized in Table 3 were conducted at the same time against both sublines using the same drug preparations. […] These experiments were repeated in a second laboratory as documented in Table 4. However, in these experiments the animals were held for 60 rather than 30 days to evaluate whether or not long-term survivors are produced after drug treatment in a more challenging setting. […]
(§2) These experiments (23-00081 3LE31 and 23-00003 3DP3l) were conducted concurrently at the Mason Research Institute, Worcester, MA under the supervision of Dr. William Cobb. See Table 4 for experimental details. The diluent control animals bearing L1210 leukemia lived a median of 8.3 days and gained 1.6 grams by Day 5. […] Female CD2Fl mice were used for these experiments.

[2] = test system: IP L1210 leukemia; assay: Mouse optimal (highest tolerated) dose, IP L1210 leukemia, Days 1, 5 and 9 schedule (Table 7); type: in vivo
Source text: *IP L1210 leukemia, Days 1, 5 and 9 schedule. Highest tolerated dose in a
least 2 of 3 experiments (i.e,. animal weight difference (testcontrol)

[3] = test system: IP L1210; assay: Activity against IP-implanted L1210 leukemia sensitive to cisplatin, 60 day test (Table 4); type: in vivo, Female CD2Fl mice
Method: as §1
(§3) Other known mechanisms of resistance for other classes of agents, such as gene amplification or target enzyme change or amplication, also need to be explored. The experiments summarized in Table 3 were conducted at the same time against both sublines using the same drug preparations. […] These experiments were repeated in a second laboratory as documented in Table 4. However, in these experiments the animals were held for 60 rather than 30 days to evaluate whether or not long-term survivors are produced after drug treatment in a more challenging setting.
This experiment (A8-00005 3LE31) was conducted at the Southern Research Institute, Birmingham, Ala. under the supervision of Dr. Daniel Griswold. The protocols were the same as those published previously (Geran et al., Cancer Chemotherapy Reports 3: No. 2, 1972 [Attachment 11]). 10^5 cells were implanted intraperitoneally in CD2Fl male mice on Day 0. Drug treatments were given intraperitoneally as single injections at the doses indicated on Days 1, 5 and 9 after tumor implantation. The diluent was saline except for NSC-271674 where 5% sodium bicarbonate was used. All drugs were prepared fresh on the day of injection, and all were administered in solution. Median survival times for both control and drug-treated mice were determined and expressed as a percentage (% T/C). Body weights were determined on Day 5 and expressed as a weight difference (body weight of the drug-treated animals minus that of the control animals in grams) (T-C). The diluent control animals lived a median of 8.4 days and gained 1.9 grams by Day 5 in this experiment. All animals, including Day 30 survivors, were used in the calculation of median survival times. The log10 change in tumor burden refers to the net log change in viable tumor cell population at the end of therapy (Rx) as compared to the start of therapy; e.g., a […] means that there was a […] and a 3 log change means there was a 1000-fold increase in tumor burden at the end of therapy. The tumor burden at the start of therapy was about 6.1×10^5 cells in this experiment.
as §2

[4] = test system: IP L1210/Cisplatin; assay: Activity against IP-implanted L1210/Cisplatin leukemia resistant to cisplatin, 30 day test (Table 3); type: in vivo, Female CD2Fl mice
Method: as §1, §3
This experiment (A8-00005 3LE31) was conducted at the Southern Research Institute, Birmingham, Ala. under the supervision of Dr. Daniel Griswold. The protocols were the same as those published previously (Geran et al., Cancer Chemotherapy Reports 3: No. 2, 1972 [Attachment 11]). 10^5 cells were implanted intraperitoneally in CD2Fl male mice on Day 0. Drug treatments were given intraperitoneally as single injections at the doses indicated on Days 1, 5 and 9 after tumor implantation. The diluent was saline except for NSC-271674 where 5% sodium bicarbonate was used. All drugs were prepared fresh on the day of injection, and all were administered in solution. Median survival times for both control and drug-treated mice were determined and expressed as a percentage (% T/C). Body weights were determined on Day 5 and expressed as a weight difference (body weight of the drug-treated animals minus that of the control animals in grams) (T-C). The diluent control animals lived a median of 8.4 days and gained 1.9 grams by Day 5 in this experiment. All animals, including Day 30 survivors, were used in the calculation of median survival times. The log10 change in tumor burden refers to the net log change in viable tumor cell population at the end of therapy (Rx) as compared to the start of therapy; e.g., a […] means that there was a […] and a 3 log change means there was a 1000-fold increase in tumor burden at the end of therapy. The tumor burden at the start of therapy was about 6.1×10^5 cells in this experiment. […]

With N.N.[Cl][Pt][Cl] [Cisplatin, cis-diamminedichloroplatinum (II), reference compound] the “60 Day Survivors/Total” value ([1]; 1.25 mg/kg/dose) was 0/10, the “Body Weight Difference” value ([1]; 1.25 mg/kg/dose) was -0.1 Grams and the “Median % T/C” value ([1]; 1.25 mg/kg/dose) was 103%. For the same compound, the “60 Day Survivors/Total” value ([1]; 5 mg/kg/dose) was 0/10, the “Body Weight Difference” value ([1]; 5 mg/kg/dose) was -2.3 Grams and the “Median % T/C” value ([1]; 5 mg/kg/dose) was 110%. For the same compound, the “60 Day Survivors/Total” value ([1]; 10 mg/kg/dose) was 0/10, the “Body Weight Difference” value ([1]; 10 mg/kg/dose) was -5.1 Grams and the “Median % T/C” value ([1]; 10 mg/kg/dose) was 87%. For the same compound, the “60 Day Survivors/Total” value ([1]; 20 mg/kg/dose) was 0/10, the “Body Weight Difference” value ([1]; 20 mg/kg/dose) was -5.6 Grams and the “Median % T/C” value ([1]; 20 mg/kg/dose) was “Toxic”. The “Activity against L1210/cisplatin” value ([1]; mouse, in vivo) was “lack of activity”, the “Mouse Optimal Dose (highest tolerated dose in at least 2 of 3 experiments)” value [2] was 10 mg/kg and the “60 Day Survivors/Total” value ([3]; 1.25 mg/kg/dose) was 0/10. For the same compound, the “Body Weight Difference” value ([3]; 1.25 mg/kg/dose) was -0.6 Grams, the “Median % T/C” value ([3]; 1.25 mg/kg/dose) was 127% and the “60 Day Survivors/Total” value ([3]; 5 mg/kg/dose) was 0/10. For the same compound, the “Body Weight Difference” value ([3]; 5 mg/kg/dose) was -2.4 Grams, the “Median % T/C” value ([3]; 5 mg/kg/dose) was 240% and the “60 Day Survivors/Total” value ([3]; 10 mg/kg/dose) was 0/10. The “Body Weight Difference” value ([3]; 10 mg/kg/dose) was -5.1 Grams, the “Median % T/C” value ([3]; 10 mg/kg/dose) was 107% and the “60 Day Survivors/Total” value ([3]; 20 mg/kg/dose) was 0/10. For the same compound, the “Body Weight Difference” value ([3]; 20 mg/kg/dose) was -5.8 Grams, the “Median % T/C” value ([3]; 20 mg/kg/dose) was “Toxic” and the “30 Day Survivors/Total” value ([4]; 1.25 mg/kg/dose) was 0/6. The “Approx. Log10 Change in Tumor Burden at End of RX” value (from here on “Approx. Log10 Change”) ([4]; 1.25 mg/kg/dose) was roughly 3.0 log10, the “Median % T/C” value ([4]; 1.25 mg/kg/dose) was 104% and the “30 Day Survivors/Total” value ([4]; 5 mg/kg/dose) was 0/6. For the same compound, the “Approx. Log10 Change” value ([4]; 5 mg/kg/dose) was roughly 3.1 log10, the “Median % T/C” value ([4]; 5 mg/kg/dose) was 101% and the “30 Day Survivors/Total” value ([4]; 10 mg/kg/dose) was 0/6. For the same compound, the “Approx. Log10 Change” value ([4]; 10 mg/kg/dose) was roughly 2.9 log10, the “Median % T/C” value ([4]; 10 mg/kg/dose) was 108% and the “30 Day Survivors/Total” value ([4]; 20 mg/kg/dose) was 0/6. The “Median % T/C” value ([4]; 20 mg/kg/dose) was 86% and the “Activity against L1210/cisplatin” value ([4]; mouse, in vivo) was “refractory”.
With [Cl][Pt-2]1([Cl])([Cl])([Cl])[NH2+][C@H]2CCCC[C@@H]2[NH2+]1 [trans (d), (1S, 2S)-Tetrachloro-trans-1,2-cyclohexanediamine platinum (IV)] the “60 Day Survivors/Total” value ([1]; 1 mg/kg/dose) was 0/10, the “Body Weight Difference” value ([1]; 1 mg/kg/dose) was -0.4 Grams and the “Median % T/C” value ([1]; 1 mg/kg/dose) was 125%. For the same compound, the “60 Day Survivors/Total” value ([1]; 2 mg/kg/dose) was 0/10, the “Body Weight Difference” value ([1]; 2 mg/kg/dose) was -0.2 Grams and the “Median % T/C” value ([1]; 2 mg/kg/dose) was 147%. The “60 Day Survivors/Total” value ([1]; 4 mg/kg/dose) was 6/10, the “Body Weight Difference” value ([1]; 4 mg/kg/dose) was -1.4 Grams and the “Median % T/C” value ([1]; 4 mg/kg/dose) was 645%. For the same compound, the “60 Day Survivors/Total” value ([1]; 8 mg/kg/dose) was 1/10, the “Body Weight Difference” value ([1]; 8 mg/kg/dose) was -4.8 Grams and the “Median % T/C” value ([1]; 8 mg/kg/dose) was 193%. The “60 Day Survivors/Total” value ([1]; 16 mg/kg/dose) was 0/10, the “Body Weight Difference” value ([1]; 16 mg/kg/dose) was -6.1 Grams and the “Median % T/C” value ([1]; 16 mg/kg/dose) was “Toxic”. The “Mouse Optimal Dose (highest tolerated dose in at least 2 of 3 experiments)” value [2] was 8 mg/kg, the “60 Day Survivors/Total” value ([3]; 1 mg/kg/dose) was 0/10 and the “Body Weight Difference” value ([3]; 1 mg/kg/dose) was -0.6 Grams. The “Median % T/C” value ([3]; 1 mg/kg/dose) was 144%, the “60 Day Survivors/Total” value ([3]; 2 mg/kg/dose) was 3/10 and the “Body Weight Difference” value ([3]; 2 mg/kg/dose) was -1.0 Grams. For the same compound, the “Median % T/C” value ([3]; 2 mg/kg/dose) was 216%, the “60 Day Survivors/Total” value ([3]; 4 mg/kg/dose) was 0/10 and the “Body Weight Difference” value ([3]; 4 mg/kg/dose) was -1.2 Grams. The “Median % T/C” value ([3]; 4 mg/kg/dose) was 202%, the “60 Day Survivors/Total” value ([3]; 8 mg/kg/dose) was 3/10 and the “Body Weight Difference” value ([3]; 8 mg/kg/dose) was -3.1 Grams. For the same compound, the “Median % T/C” value ([3]; 8 mg/kg/dose) was 301%, the “60 Day Survivors/Total” value ([3]; 16 mg/kg/dose) was 0/10 and the “Body Weight Difference” value ([3]; 16 mg/kg/dose) was -7.0 Grams. The “Median % T/C” value ([3]; 16 mg/kg/dose) was “Toxic”, the “30 Day Survivors/Total” value ([4]; 1 mg/kg/dose) was 0/6 and the “Approx. Log10 Change” value ([4]; 1 mg/kg/dose) was roughly 3.1 log10. For the same compound, the “Median % T/C” value ([4]; 1 mg/kg/dose) was 101%, the “30 Day Survivors/Total” value ([4]; 2 mg/kg/dose) was 0/6 and the “Approx. Log10 Change” value ([4]; 2 mg/kg/dose) was roughly 2.8 log10. For the same compound, the “Median % T/C” value ([4]; 2 mg/kg/dose) was 116%, the “30 Day Survivors/Total” value ([4]; 4 mg/kg/dose) was 0/6 and the “Approx. Log10 Change” value ([4]; 4 mg/kg/dose) was roughly 2.4 log10. The “Median % T/C” value ([4]; 4 mg/kg/dose) was 139%, the “30 Day Survivors/Total” value ([4]; 8 mg/kg/dose) was 3/6 and the “Approx. Log10 Change” value ([4]; 8 mg/kg/dose) was roughly -5.9 log10. The “Median % T/C” value ([4]; 8 mg/kg/dose) was 322%, the “30 Day Survivors/Total” value ([4]; 16 mg/kg/dose) was 1/6 and the “Median % T/C” value ([4]; 16 mg/kg/dose) was 143%.
